In paper PMC10611510, “Teicoplanin associated gene tcaA inactivation increases persister cell formation in Staphylococcus aureus” (Frontiers in Microbiology, 2023):
In brackets after ≈: the same amount, converted by molar mass. Entries after “also recorded” stand apart in the source; their conditions may differ. Where two headings read alike, the source gives them in different places.

Key:
ΔtcaA [1] = assay: MIC, two-fold broth microdilution (CLSI); assay type: cell-based; conditions: Staphylococcus aureus
ΔtcaA [2] = assay: Antibiotic susceptibility testing (inhibition zones); assay type: cell-based, Staphylococcus aureus; conditions: 100 fold MIC, 2 × 10^9 CFU/mL, 37°C, inhibition zones after 24–36 h; Supplementary Figure S1
S. aureus WT [3] = assay: microbe, parasite or virus in culture; assay type: cell-based, Staphylococcus aureus
dCas9-tcaA = assay: Persister assay; conditions: dCas9-tcaA vs WT-dCas9, 10-fold MIC, CFU counting; for Surviving fraction of cells (persisters), fold relative to control: after 12 h, triplicates; for Increase in persister cells, fold relative to control: after 48 h
Experimental: (§2) A persistence assay was adopted from our previous protocol ([Habib et al., 2020]). The cells were grown to OD600 = 0.40 in the TSB medium. The pSD1 containing dCas9-tcaA and dCas9-tcaB were induced with ATC 100 ng/mL for 1 h, the medium was removed, and fresh TSB and antibiotic were added whereas ΔtcaA cells were challenged with antibiotic at OD600 = 0.40. After 12 h, a 200 μL sample was taken and CFU counting was performed. Each antibiotic concentration was 10 fold of MIC, and S. aureus WT and S. aureus WT-dCas9 were used as controls.

dCas9-tcaB = assay: Persister assay; conditions: dCas9-tcaB vs WT-dCas9 and WT; 10-fold MIC
Experimental: as §2

MRSA MW2 = assay: Growth curve analysis; assay type: cell-based, Staphylococcus aureus; conditions: OD600, 37°C
Experimental: (§1) The overnight culture was 100 times diluted in TSB medium and a 200 μL was inoculated into a 96-well microtiter plate. The plates were incubated at 37°C with shaking at 200 rpm. At different time intervals (1–18 and 24 h), OD600 was measured using a microplate reader (Thermo Fisher, Waltham, MA, USA).

C-ΔtcaA = assay: Growth curve analysis; assay type: cell-based, Staphylococcus aureus; conditions: OD600, 37°C
Experimental: as §1

ΔtcaA [4] = assay: Growth curve analysis; assay type: cell-based, Staphylococcus aureus; conditions: OD600, 37°C
Experimental: as §1

S. aureus WT [5] = assay: Growth curve analysis; assay type: cell-based, Staphylococcus aureus; conditions: OD600, 37°C
Experimental: as §1

ΔtcaA [6] = system: ΔtcaA
Experimental: as §2

ΔtcaA [7] = assay: Fluorescence microscopy of persister cell resuscitation (GFP); conditions: 20-fold MIC for 48 h, washed, fresh TSB 2 h at 37°C; ΔtcaA compared to WT
Experimental: Fluorescence microscopy was used to observe the persister cell resuscitation ability of the whole population. […] The cells were harvested, washed with ddH2O, and resuspended in TSB media. The cells were grown for 2 h at 37°C and the S. aureus WT and ΔtcaA were observed under the fluorescence microscope.

[8] = system: penicillin binding protein-2 (pbp2) ectopic expression; conditions: ref Sieradzki et al., 1998, cited from earlier work; for MIC after the increase: end value of the increase associated with pbp2 ectopic expression; for MIC before the increase: start value of the increase associated with pbp2 ectopic expression
Description: Staphylococcus aureus has two major types of resistant strains, namely, methicillin-resistant S. aureus (MRSA) and vancomycin-resistant S. aureus (VRSA). MRSA is considered the major cause of hospital and community-acquired infections ([Aqib and Rodriguez-Morales, 2021]) and is largely treated with glycopeptides. However, the emergence of teicoplanin resistance, vancomycin-intermediate S. aureus (VISA), and VRSA has made the clinical treatment unsuccessful and increased death rates across the world ([Howden et al., 2010]). S. aureus resistant to glycopeptides are a serious threat to public hea ...

resistant isolates = conditions: ref Wang Y. et al., 2017; cited from earlier work
Description: Glycopeptide resistance in MRSA is a global problem and vancomycin- and teicoplanin-resistant strains are of major clinical relevance. Several studies have reported the emergence of teicoplanin and vancomycin resistance in S. aureus ([Wang Y. et al., 2017]; [Szymanek-Majchrzak et al., 2018]; [Wu et al., 2021]). Typically, teicoplanin and vancomycin bind to D-alanine-D-alanine subunits of the murein monomer and cross resistance could develop between teicoplanin and vancomycin ([Bakthavatchalam et al., 2019]). The cell wall thickness also contributed to the development of vancomycin and teicopla ...

ΔtcaA [9] = assay: Persister assay
Experimental: as §2

[10] = C-ΔtcaA complementary strain, 1 mg/L
[11] = ΔtcaA complementary strain, 2 mg/L

Molecule	MIC (ΔtcaA [1]) [µg/mL]	Susceptibility of ΔtcaA (in words) (ΔtcaA [2])	Susceptibility of the isolate (in words) (S. aureus WT [3])	MIC (S. aureus WT [3]; Staphylococcus aureus) [µg/mL]	Surviving fraction of cells (persisters), fold relative to control (dCas9-tcaA) [fold]	Increase in persister cells, fold relative to control (dCas9-tcaA) [fold]	Persister cell formation relative to controls (in words) (dCas9-tcaB)	Growth in TSB with antibiotic (in words) (MRSA MW2; 1 mg/L)	Growth in TSB with antibiotic (in words) (MRSA MW2; 2 mg/L)	Growth in TSB with antibiotic (in words) (C-ΔtcaA; [10])	Growth in TSB with antibiotic (in words) (C-ΔtcaA; [11])	Growth in TSB with antibiotic (in words) (ΔtcaA [4]; 1 mg/L)	Growth in TSB with antibiotic (in words) (ΔtcaA [4]; 2 mg/L)	Growth in TSB with antibiotic (in words) (S. aureus WT [5]; 1 mg/L)	Growth in TSB with antibiotic (in words) (S. aureus WT [5]; 2 mg/L)	GFP-expressing cells after antibiotic removal (resuscitation) (ΔtcaA [7])	MIC after the increase [8] [µg/mL]	MIC before the increase [8] [µg/mL]	MIC (resistant isolates) [µg/mL]	other results
CC[C@H]1OC(=O)[C@H](C)[C@@H](O[C@H]2C[C@@](C)(OC)[C@@H](O)[C@H](C)O2)[C@H](C)[C@@H](O[C@@H]2O[C@H](C)C[C@H](N(C)C)[C@H]2O)[C@](C)(O)C[C@@H](C)CN(C)[C@H](C)[C@@H](O)[C@]1(C)O [Azithromycin]	≤ 8	did not affect	sensitive	≤ 8	–	–	–	–	–	–	–	–	–	–	–	–	–	–	–	–
COc1cccc(OC)c1C(=O)N[C@@H]1C(=O)N2[C@@H]1SC(C)(C)[C@@H]2C(=O)O [Methicillin]	≥ 256	–	resistant	> 512	–	–	–	–	–	–	–	–	–	–	–	–	–	–	–	–
CN[C@H](CC(C)C)C(=O)N[C@H]1C(=O)N[C@@H](CC(N)=O)C(=O)N[C@H]2C(=O)N[C@H]3C(=O)N[C@H](C(=O)N[C@H](C(=O)O)c4cc(O)cc(O)c4-c4cc3ccc4O)[C@H](O)c3ccc(c(Cl)c3)Oc3cc2cc(c3O[C@@H]2O[C@H](CO)[C@@H](O)[C@H](O)[C@H]2O[C@H]2C[C@](C)(N)[C@H](O)[C@H](C)O2)Oc2ccc(cc2Cl)[C@H]1O [Vancomycin]	–	resistance; also recorded: susceptibility was decreased	resistant	10 (≈ 6.9 µM)	15	10	did not induce persister cell formation	slow growth rates	did not show any growth	fast and steady growth	slow growth	fast and steady growth	slow growth	fast and steady growth	slow growth	high number of cells expressing GFP in ΔtcaA cells compared to WT	2 (≈ 1.38 µM)	1 (≈ 0.69 µM)	2 (≈ 1.38 µM)	Increase in persister cells, fold (tcaA persistence assay, summary) (ΔtcaA [6]): 10–11 fold; Increase in persister cells, fold relative to control (ΔtcaA [6]): 11 fold
Teicoplanin	–	resistance; also recorded: susceptibility was decreased	resistant	–	17	13	did not induce persister cell formation	slow growth rates	did not show any growth	fast and steady growth	slow growth	fast and steady growth	slow growth	fast and steady growth	slow growth	high number of cells expressing GFP in ΔtcaA cells compared to WT	8	2	16	Increase in persister cells, fold (tcaA persistence assay, summary) (ΔtcaA [9]; summary over dCas9-tcaA and ΔtcaA, discussion): 13–14 fold; Surviving fraction of cells (persisters), fold relative to control (ΔtcaA [9]; ΔtcaA vs WT, 10-fold MIC, after 12 h, CFU counting, triplicates): 18 fold; Increase in persister cells, fold relative to control (ΔtcaA [9]; ΔtcaA vs WT, 10-fold MIC, after 48 h, CFU counting): 14 fold; MIC (S. aureus WT [3]): 16 µg/mL
